Here are results for one compound from patent publication US20240390395A1, “APPLICATION OF ION CHANNEL BLOCKER IN TREATMENT AND/OR PREVENTION OF HEPATIC FIBROSIS” (Affiliated Hospital of Zunyi Medical University, priority 2023, published 2024).

Data set [1] deals with LC3. As to the kind of experiment: LC3 in hepatic tissues detected by Western blotting. It is filed as in vivo, mouse. The note with it: CCl4-induced hepatic fibrosis mice; gliclazide solution 500 μM intraperitoneal. As to the method: (§1) The mice are randomly divided into four groups including a, b, c, and d. • a. Normal control group. • b. Model group: mice are intragastrically administered with the CCl4 solution, 0.1 mL/20 g (i.e., 0.1. mL CC14 per 20 g of body weight of mice), twice a week for 8 weeks. • c. CCl4+gliclazide group: mice are intragastrically administered with the CCl4 solution alone, 0.1 mL/20 g, twice a week for 2 weeks; then the mice are given with the gliclazide solution and the CCl4 solution together for 6 weeks; and an administration method of the gliclazide solution is 0.2mL/20g and intraperitoneal injection once a day. • d. Gliclazide group: the gliclazide solution is intraperitoneally injected into mice for 8 weeks; and an administration method of the gliclazide solution is 0.2 mL/20 g and intraperitoneal injection once a day. Experimental materials include mouse hepatic tissues, a tweezer, a scissor, steel balls with a size of 2 millimeters (mm), a magnet, a cell lysis solution, a PBS solution, a bicinchoninic acid (BCA) protein assay kit, non-fat powdered milk, primary antibodies and corresponding secondary antibodies related to α-SMA, LC3, and p62. An experimental method is as follows. […] The optical density (OD) value at 560 nanometers (nm) is measured by using an enzyme-linked immunosorbent assay (ELISA) on the machine to calculate the concentration of the protein. […]
In general terms: A western blot detects proteins with antibodies after separation by electrophoresis.

The subject of data set [2] is α-SMA. The data set can be described thus: α-SMA in HSCs added with autophagy agonist rapamycin, Western blotting. Format: cell-based, rat. The settings on record: HSCs-T6; gliclazide 100 βM; TGF-β1 10 ng/ml; 48 hours; P<0.05. As to the method:
Experimental materials include HSCs-T6, rapamycin, a DMEM complete culture medium, cell culture dishes, a cell lysis solution, a PBS solution, a BCA protein assay kit, non-fat powdered milk, primary antibodies and corresponding secondary antibodies related to α-SMA, LC3, and p62.
Experimental method is as follows. First, this experiment is divided into a normal group, a TGF-β1 group, a gliclazide +TGF-β1 group, and a gliclazide +TGF-β1 +rapamycin group. The concentration of the TGF-β1 is 10 ng/ml, the concentration of the gliclazide is 100 βM, and the concentration of the rapamycin is 100 nanomoles per liter (nM). The TGF-β1 is added at the same time as that in the embodiment 5, and rapamycin and gliclazide are added simultaneously. After 48 hours of incubation, the above groups are detected by the BCA protein assay kit and Western blotting.

Data set [3] deals with HSCs-T6. As to the kind of experiment: HSCs proliferation under co-culture of gliclazide and TGF-β1 detected by CCK8. It is filed as cell-based, rat. The settings on record: TGF-β1 10 ng/mL, 48 hours, P<0.05. As to the method:
Experimental materials include HSCs-T6, a Dulbecco's modified eagle medium (DMEM) complete culture medium, a 96-well plate, a counting chamber (also referred to as hemocytometer), CCK-8 working solution, and the like. An experimental method is as follows. First, HSCs-T6 are cultured in the DMEM culture medium containing 10% fetal bovine serum, 1% double antibody (penicillin streptomycin solution) and 1% nonessential amino acid (NEAA), and the culture conditions include 37° C. and 5% CO2. The cells are digested by using trypsin for passage cultivation after the cells are converged to 80% to 90%. Next, the cells are inoculated in the plate, specifically, a density of […] cell suspension with a volume of 100 μL is added into each well of the 96-well plate, each group has 6 replicate wells. This experiment is divided into a control group and a TGF-β1 group, TGF-β1+gliclazide (the gliclazide used in this group has different concentrations of 50μM, 100μM, 150μM, and 200μM) medicament groups. After cell attachment, except for the control group and the TGF-β1 group, the other groups are added with gliclazide with the above concentrations respectively, and after 3 hours, TGF-β1 (10 ng/mL) is added to corresponding groups for stimulating HSCs of […]. After 48 hours of incubation, 100 μL mixed solution of “10% CCK8+90% culture medium” is added into each well. Then the incubation is performed at 37° C. for 1˜4 h, a wavelength is set at 450 nm, and an automatic enzyme analyzer is used to read and record absorbance values at the corresponding wavelength. The effects of gliclazide on cell proliferation are detected by CCK8, and the optimal action time and optimal medicament concentration are screened.

Data set [4] deals with α-SMA. The data set can be described thus: α-SMA in hepatic tissues detected by Western blotting. It is filed as in vivo, mouse. The settings on record: CCl4-induced hepatic fibrosis mice; gliclazide solution 500 μM intraperitoneal. As to the method:
as §1

Data set [5] relates to p62. As to the kind of experiment: p62 in hepatic tissues detected by Western blotting. It is filed as in vivo, mouse. The settings on record: CCl4-induced hepatic fibrosis mice; gliclazide solution 500 μM intraperitoneal. As to the method:
as §1

The subject of data set [6] is α-SMA. The data set can be described thus: α-SMA in HSCs detected by Western blotting. It is filed as cell-based, rat. The settings on record: HSCs-T6; gliclazide 100 βM; TGF-β1 10 ng/ml; 48 hours. As to the method:
(§2) Experimental materials include HSCs-T6, a DMEM complete culture medium, cell culture dishes, a cell lysis solution, a PBS solution, a BCA protein assay kit, non-fat powdered milk, primary antibodies and corresponding secondary antibodies related to α-SMA, LC3, and p62. Experimental method is as follows. First, this experiment is divided into a normal group, a TGF-β1 group, a gliclazide +TGF-β1 group, and a gliclazide group. The concentration of the TGF-β1 is 10 ng/ml, and the concentration of the gliclazide is 100 βM. The the HSCs-T6 is cultured by using the cell culture dish, and inoculated, administrated, added with TGF-β1 according to the conditions described in the embodiment 4. After 48 hours, the incubated cells are rinsed by the precooled PBS solution for 3-4 times, and residual PBS liquid is absorbed with a filter paper, 50 μL radioimmune precipitation assay (RIPA) buffer and 0.5 μL (100:1) phenylmethanesulfonyl fluoride (PMSF) with a concentration of 100millimoles per liter (mmol/L) are added in a 50 mL culture flask and placed on ice for 30 minutes. Then, the protein is scraped by a cell scraper from the culture flask and suctioned out into the EP tubes, and centrifuged at 12000 rpm for 30 minutes at 4° C. […] The OD value at 560 nm is measured by using ELISA on the machine to calculate the concentration of the protein. […]

Data set [7] has as its system CCl4-induced hepatic fibrosis mice. As to the kind of experiment: CCl4-induced mouse hepatic fibrosis, HE staining and Sirius-red staining of hepatic tissue. The note with it: gliclazide solution 500 μM, C57 mice. It is filed as in vivo. As to the method: Experimental materials include 60 healthy male C57 mice (20-25 g per mouse, purchased from Chongqing […] Biotechnology Co., Ltd.), gavage needles, 1 milliliter (mL) syringes, CCI4 solution, olive oil, and gliclazide solution. An experimental method is as follows. The CCl4 solution is prepared by dissolving CCl4 in the olive oil (a volume ratio of CCl4 to olive oil is 1:4), and the prepared CCl4 solution should be used immediately. The gliclazide solution is prepared by dissolving gliclazide in physiological saline, the concentration of the gliclazide solution is 500 micromoles per liter (μM), and the prepared gliclazide solution should be used immediately. The mice are randomly divided into four groups including a, b, c, and d. • a. Normal control group. • b. Model group: mice are intragastrically administered with the CCl4 solution, 0.1 mL/20 g (i.e., 0.1. mL CC14 per 20 g of body weight of mice), twice a week for 8 weeks. • c. CCl4+gliclazide group: mice are intragastrically administered with the CCl4 solution alone, 0.1 mL/20 g, twice a week for 2 weeks; then the mice are given with the gliclazide solution and the CCl4 solution together for 6 weeks; and an administration method of the gliclazide solution is 0.2mL/20g and intraperitoneal injection once a day. • d. Gliclazide group: the gliclazide solution is intraperitoneally injected into mice for 8 weeks; and an administration method of the gliclazide solution is 0.2 mL/20 g and intraperitoneal injection once a day. The mice are sacrificed at the 2nd, 4th, 6th and 8th weeks of modeling respectively, and one mouse in each group is sacrificed each time. Hepatic samples obtained from the sacrificed mice are taken out and stored in liquid nitrogen at -80 Celsius degrees (° C.), and the other hepatic samples are fixed in paraformaldehyde with a concentration of 4% for 24 hours, then the other hepatic samples are embedding in paraffin. The degrees of severity of hepatic fibrosis are observed by appearance, Sirius-red staining, and hematoxylin-eosin (HE) staining. […]

The subject of data set [8] is LC3. The data set can be described thus: LC3 in HSCs detected by Western blotting. It is filed as cell-based, rat. The settings on record: HSCs-T6; gliclazide 100 βM; TGF-β1 10 ng/ml; 48 hours. As to the method: as §2
The test system of data set [9] is p62. As to the kind of experiment: p62 in HSCs detected by Western blotting. Format: cell-based, rat. The settings on record: HSCs-T6; gliclazide 100 βM; TGF-β1 10 ng/ml; 48 hours. As to the method: as §2
In data set [10] the test system is α-SMA. The data set can be described thus: α-SMA in hepatic tissues detected by immunohistochemistry. Format: in vivo, mouse. The settings on record: CCl4-induced hepatic fibrosis mice; gliclazide solution 500 μM intraperitoneal. As to the method: The mice are randomly divided into four groups including a, b, c, and d. • a. Normal control group. • b. Model group: mice are intragastrically administered with the CCl4 solution, 0.1 mL/20 g (i.e., 0.1. mL CC14 per 20 g of body weight of mice), twice a week for 8 weeks. • c. CCl4+gliclazide group: mice are intragastrically administered with the CCl4 solution alone, 0.1 mL/20 g, twice a week for 2 weeks; then the mice are given with the gliclazide solution and the CCl4 solution together for 6 weeks; and an administration method of the gliclazide solution is 0.2mL/20g and intraperitoneal injection once a day. • d. Gliclazide group: the gliclazide solution is intraperitoneally injected into mice for 8 weeks; and an administration method of the gliclazide solution is 0.2 mL/20 g and intraperitoneal injection once a day. […] An experimental method is as follows.

Where [11] appears, read: CCl4+gliclazide group vs model group, 0.2 mL/20 g intraperitoneal once a day for 6 weeks.

As for `Cc1ccc(S(=O)(=O)NC(=O)NN2CC3CCCC3C2)cc1` (centres unmarked) [gliclazide], the “expression of LC3 in hepatic tissue (Western blotting)” value in data set [1] is “significantly decreases”. For the same compound, the “protein expression level of α-SMA, gliclazide +TGF-β1 group vs TGF-β1 group” value in data set [2] is listed as “significantly lower”. Further, the “proliferation of HSC-T6 induced by TGF-β1 (CCK8)” value in data set [3] (gliclazide 100 μM), in data set [3] (gliclazide 150 μM) and in data set [3] (gliclazide 200 μM) was “inhibits the proliferation” each time. The “expression of α-SMA in hepatic tissue (Western blotting)” value in [4] is on record as “significantly decreases”. The “expression level of autophagy substrate p62 in hepatic tissue (Western blotting)” value in data set [5] is reported as “significantly increases”. In addition, in data set [6], the “expression of α-SMA in HSCs (Western blotting)” value is recorded as “significantly decreases”. Moreover, the “degree of hepatic fibrosis (HE staining)” value in [7] (setting [11]) is reported as “significantly decreased”. Further, in data set [7] (setting [11]), the “degree of hepatic tissue injury (HE staining)” value is “significantly decreased”. The “collagen fibers in hepatic tissue (Sirius-red staining)” value in data set [7] (gliclazide group without CCl4, 0.2 mL/20 g intraperitoneal once a day for 8 weeks) was “no obvious collagen fibers are observed”. Also, the “expression of LC3 in HSCs (Western blotting)” value in [8] was “significantly decreases”. Also, in data set [9], the “expression level of autophagy substrate p62 in HSCs (Western blotting)” value is recorded as “significantly increases”. Moreover, the “expression of α-SMA in hepatic tissues (immunohistochemistry)” value in [10] is “down-regulate”.
